Test results published in patent publication US8349862B2, “Pyridine derivatives for the treatment of metabolic disorders related to insulin resistance or hyperglycemia” (Piramal Healthcare Limited, priority 2006, dated 2013).

Assays:
[1] = system: insulin resistant adipocytes (differentiated 3T3 L1 fibroblasts); assay: In vitro model exhibiting insulin resistance: 14C-2-deoxyglucose uptake in dexamethasone-treated adipocytes; format: cell-based; conditions: test compound 10 μM/mL, Rosiglitazone 0.1 μM
Procedure: The assay was designed as in reference, British Journal of Pharmacology, 130, 351-58, 2000, the disclosure of which is incorporated by reference for the teaching of the assay. The solution of test compound (10 μM/mL) was prepared in DMSO. […] Differentiation into adipocytes was induced by known methods as described below. (J. Biol. […] 3T3 L1 fibroblasts were seeded in 24- or 6-well plates at a density of 0.5-2×10^4 cells/well and were allowed to reach maximal confluency. The confluent fibroblasts were exposed to culture medium for 2 days. […] The mature adipocytes were exposed to dexamethasone, 100 nM added in ethanol, in culture medium and incubated for 2 days. […] The test compound was also present during this period. After 3-4 hours, the medium was aspirated and replaced with Kreb's Ringer phosphate (KRP) buffer at pH 7.4 and with human/porcine insulin, 200 nM. The cells were incubated for 30 minutes at 37° C. […] After exactly 5 minutes, the plates were transferred to ice trays and medium was rapidly aspirated. The cell layer was washed twice with ice-cold phosphate buffered saline, (PBS), pH 7.4. […] Non-specific glucose uptake was assayed in wells exposed to cytochalasin B, inhibitor of glucose transport. […] Statistical analysis was performed using unpaired t-test.

Human PPARγ = biological target: T1, Human PPARγ (Homo sapiens, UniProt P37231); assay: Human PPARγ transactivation assay (luciferase reporter, HEK293 cells); format: cell-based
T1 construct: Human full length PPARγ cDNA was cloned into pSG5 expression vector; expressed in transfected cells; host or cells: HEK293
T1 sequence (P37231 1-505): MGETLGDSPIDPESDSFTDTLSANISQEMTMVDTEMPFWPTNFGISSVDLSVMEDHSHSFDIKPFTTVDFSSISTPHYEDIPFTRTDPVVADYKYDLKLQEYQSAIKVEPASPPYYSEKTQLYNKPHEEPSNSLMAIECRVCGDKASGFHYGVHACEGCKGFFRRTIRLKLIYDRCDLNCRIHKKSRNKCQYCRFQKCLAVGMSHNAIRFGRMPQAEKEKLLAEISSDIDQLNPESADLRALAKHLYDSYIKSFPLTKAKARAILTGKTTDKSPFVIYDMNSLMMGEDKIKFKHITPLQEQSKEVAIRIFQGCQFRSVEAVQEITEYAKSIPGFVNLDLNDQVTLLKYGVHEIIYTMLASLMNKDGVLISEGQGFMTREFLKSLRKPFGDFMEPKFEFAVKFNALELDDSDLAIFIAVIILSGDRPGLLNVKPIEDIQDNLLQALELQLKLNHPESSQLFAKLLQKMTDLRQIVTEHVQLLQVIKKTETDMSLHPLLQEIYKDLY
Procedure: The assay was designed as in the reference, Biochem. Biophys. Res. Comm. 175:865-871, 1991, the disclosure of which is incorporated by reference for the teaching of the assay.
Human PPARγ activity was evaluated by transactivation using a luciferase reporter gene. […] Human full length PPARγ cDNA was cloned into pSG5 expression vector (Stratagene, Lo Jolla, Calif.).
HEK293 cells were seeded in 24 well plates and grown in DMEM supplemented with 10% (v/v) FCS. After 24 hours, they were transfected with 100 ng of hPPARγ receptor and 300 ng of AOX-3×PPRE-LUC reporter construct per well using Fugen 6 transfection reagent (Roche, Indianapolis, Ind.). […] The control was 0.1% DMSO. After 48 hours, transactivation activity was determined by luciferase assay using Steady Glow reagent (Promega, Madison, Wis.).

[2] = system: genetically diabetic db/db BL/6J mice; assay: Screening in db/db BL/6J mice: reduction of plasma glucose; format: in vivo; conditions: 100 mpk bid, 10 days
Procedure: The protocol was designed as in references. • 1.
The screening of compounds was based on their ability to reduce the plasma glucose levels in genetically diabetic db/db BL/6J mice.
Male db/db mice (obtained from the Animal House of Nicholas Piramal Research Centre, Goregaon, Mumbai, India) were used for this study (body weight in the range of 30-40 g and age is 6-8 weeks) and were kept eight per cage in individually ventilated cages at controlled temperature (22±1° C.) and humidity (45±5%). Food and water were provided ad libitum during their laboratory stay, except for four hours fasting prior to blood sample collection. 12 hours light and dark cycle was followed during the whole study period.
After 4 hours fasting blood samples were collected from mice. Mice showing plasma glucose levels between 300 to 500 mg/dl were divided in groups (8-10 per group) such that the mean plasma glucose levels and variation within the group, for each group, is nearly the same. After grouping, mice in respective groups received treatment with 0.5% CMC vehicle, standard compound or test compounds for 10 days.
After 4 hours fasting, mice were anaesthetized using isoflurane (inhalation anesthetic), and blood samples were collected through the retro orbital plexus. Collected blood samples were centrifuged at 7000 rpm for 10 minutes at 4° C.; Separated plasma was used for estimation of plasma glucose using diagnostic kits (Diasys, Germany). Plasma glucose levels of treated groups were normalized with control group using the following formula, which accounted for the changes in control group.
Formula used for normalization was *: {1−(Ratio of mean plasma glucose levels of control group on day 10 to day 0)/(Ratio of plasma glucose levels of treated group on day 10 to day 0)}×100.

lean C57Bl6/J mice = assay: Evaluation of antiobesity, acute study: food intake in fasted lean mice; format: in vivo; conditions: 100 mg/kg intraperitoneally, 2 hours after food introduction, p<0.001 vs vehicle
Description: The effect of standard (Sibutramine), Compound 1 and Compound 11 on food intake in lean C57Bl6/J mice at 2, 4, 6 and 24 hrs post-food introductions is indicated.
The assay was designed as in reference, PCT publication WO 2003086306, the disclosure of which is incorporated by reference for the teaching of the assay.
Male C57Bl6/J mice, weighing 20-25 g, were housed individually in the animal facility. Water and Chow (Amrut Laboratory Animal feed, Sangli, Maharashtra, India) were available ad libitum. One day before the study, the animals were weighed and separated into treatment groups having similar average body weight. For the experiment, the animals were deprived of food overnight for 16 hours. They were dosed intraperitoneally with test compounds (100 mg/kg) or comparator standard (Sibutramine, 3 mg/kg) in saline vehicle (10 mL/kg). Half an hour after drug administration the animals were presented with a pre-weighed amount of food in the food cup. Food that remained in the cup was measured at various time points. The effect of standard, and test compounds on food intake in fasted lean C57Bl6/J mice at 2, 4, 6 and 24 hrs post-food introductions was evaluated. […] (*** p<0.001 vs vehicle treated controls) (b) Chronic Study

## CC(=O)N1CCN(c2ccc(Oc3ncc(NS(=O)(=O)c4ccc(Cl)cc4Cl)cc3Cl)cc2)CC1 [Compound 1, N-(6-(4-(4-Acetylpiperazin-1-yl)phenoxy)-5-chloropyridin-3-yl)-2,4-dichlorobenzene-sulfonamide]
[1]
  % of Rosiglitazone (comparison with Rosiglitazone, glucose uptake): 61.4%
[1]; vehicle = 1.0, cut off for activity 1.50 fold
  Fold Vehicle (fold activity over vehicle, glucose uptake): 2.10 ± 0.05
Human PPARγ
  PPARγ activity (% of rosiglitazone): 6.4 % of rosiglitazone
[2]
  Normalization with control (plasma glucose reduction): 46.07 ± 4.55
other
  melting point: 215 to 216 °C
Lean C57Bl6/J mice
  Inhibition of food intake: effective in inhibiting food intake
